According to patent US10927106B2, “Benzothiazole derivatives as DYRK1 inhibitors” (PHARMASUM THERAPEUTICS AS, priority 2017, dated 2021):

How the values were obtained:
[1] = test system: tau/MAPT phosphorylation in control neurons; assay: Tau/MAPT phosphorylation in control neurons, Western blotting; assay type: cell-based, human; settings: treated for 10 days, compared to DMSO treated controls
Protocol: (§1) Overexpression of DYRK1A in DS is thought to account for increased tau phosphorylation by GSK3β and the increase in DYRK1A positive neurofibrillary tangles (NFTs) in the brains of people with DS and AD. Therefore therapeutic inhibition of DYRK1A activity in DS and AD may delay the progression of neurodegeneration in DS and AD. The following experiment on reduction of tau phosphorylation by inhibition of DYRK1A by inhibitor 4-93 was performed as described in the literature (Shi, Y. et al. A human stem cell model of early Alzheimer's disease pathology in Down syndrome. Sci. Transl. Med. 4, 124ra29 (2012)).
(§2) Neuronal cultures at day 40 were treated with DYRK1A inhibitors and control compounds for 10 days. Total protein was extracted and total tau and phosphorylated tau/MAPT was quantified by Western blotting using antibodies to total tau and a number of phospho-tau epitopes.

[2] = test system: tau/MAPT phosphorylation in TS21 neurons; assay: Tau/MAPT phosphorylation in TS21 neuronal cultures, Western blotting; assay type: cell-based, human; settings: treated for 10 days
Protocol: as §1, §2

DYRK1A = DYRK1A (Homo sapiens (Human), UniProt Q13627); assay: IC50 determination, methodology similar to Example A (Example B); assay type: biochemical; settings: against DYRK1A; Table 8
[3] = TS21 neurons, normalised to β-actin, vs DMSO treated controls

Row | IC50 (DYRK1A) [nM] | SMILES | tau/MAPT phosphorylation at Ser 396 [1] | tau/MAPT phosphorylation at Ser 404 [1] | total tau protein levels ([2]; TS21 neuronal cultures) | tau phosphorylation at Ser 396 [2, 3] | tau phosphorylation at Ser 404 [2, 3]
1 |  | C[C@H](NC(=O)Cc1cc(F)cc(F)c1)C(=O)N[C@H](C(=O)OC(C)(C)C)c1ccccc1 [DAPT, reference compound] | increased | increased | increased | increased | increased
2 | 351 | COc1ccc(Nc2ccncc2-c2nc3cc(OC)ccc3s2)c(F)c1 [PST-131] |  |  |  |  | 
